# Measured values reported in US20080171095A1, “Carnosine-related compounds for preventing and treating impaired neurovascular blood flow” (Michigan State University, priority 2005, published 2008).
# System: Male C57BL/6J mice, permanent occlusion of the middle cerebral artery (focal ischemia)
# Test: Focal ischemia in mice: permanent occlusion of the middle cerebral artery, infarct volume by 2,3,5-triphenyl-tetrazolium chloride staining
# Format: in vivo
# Conditions: assessed 24 hours after occlusion; for Reduction of infarct volume versus saline-injected control mice: 30 minutes before artery occlusion (FIG. 1)
# Procedure: Male C57BL/6J mice were subjected to a permanent occlusion of the middle cerebral artery. For prophylactic studies, carnosine (100 mg/kg or 500 mg/kg, I.P.) was administered thirty (30) minutes (FIG. 1) or sixty (60) minutes (FIG. 2) before artery occlusion. For treatment studies, carnosine (1000 mg/kg, I.P.) was administered sixty (60) minutes after artery occlusion (FIG. 2).
# Damage to the neural tissue (i.e., infarct volume) was assessed twenty-four (24) hours after occlusion by 2,3,5-triphenyl-tetrazolium chloride staining. Infarct volumes were reduced by 49% and 65% in mice prophylactically given 100 mg/kg and 500 mg/kg carnosine, respectively, versus saline-injected control mice. (FIG. 1) This protective dose dependence was reproduced in a second experiment that compared a post-occlusion carnosine administration. In this experiment, infarct volumes were reduced by 40% and 52%, respectively in mice prophylactically given 100 mg/kg and 500 mg/kg carnosine. A 40% reduction in infarct volume was also observed when mice were administered 1000 mg/kg carnosine after the occlusion.
smiles,measurement,setting,value
"NCCC(=O)N[C@@H](Cc1c[nH]cn1)C(=O)O [carnosine, β-alanyl-L-histidine]",Reduction of infarct volume versus saline-injected control mice,"100 mg/kg I.P., prophylactic",49%
same,Reduction of infarct volume versus saline-injected control mice,"500 mg/kg I.P., prophylactic",65%
same,Reduction of infarct volume,"second experiment (FIG. 2): 100 mg/kg I.P., prophylactic, 60 minutes before artery occlusion",40%
same,Reduction of infarct volume,"second experiment (FIG. 2): 500 mg/kg I.P., prophylactic, 60 minutes before artery occlusion",52%
same,Reduction of infarct volume,"second experiment (FIG. 2): 1000 mg/kg I.P., treatment, 60 minutes after artery occlusion",40%
